For one assay, the target named is T1, CYP11A1 (Homo sapiens, UniProt P05108).
T1 construct: host or cells: NCI-H295R
T1 sequence (P05108 40-521): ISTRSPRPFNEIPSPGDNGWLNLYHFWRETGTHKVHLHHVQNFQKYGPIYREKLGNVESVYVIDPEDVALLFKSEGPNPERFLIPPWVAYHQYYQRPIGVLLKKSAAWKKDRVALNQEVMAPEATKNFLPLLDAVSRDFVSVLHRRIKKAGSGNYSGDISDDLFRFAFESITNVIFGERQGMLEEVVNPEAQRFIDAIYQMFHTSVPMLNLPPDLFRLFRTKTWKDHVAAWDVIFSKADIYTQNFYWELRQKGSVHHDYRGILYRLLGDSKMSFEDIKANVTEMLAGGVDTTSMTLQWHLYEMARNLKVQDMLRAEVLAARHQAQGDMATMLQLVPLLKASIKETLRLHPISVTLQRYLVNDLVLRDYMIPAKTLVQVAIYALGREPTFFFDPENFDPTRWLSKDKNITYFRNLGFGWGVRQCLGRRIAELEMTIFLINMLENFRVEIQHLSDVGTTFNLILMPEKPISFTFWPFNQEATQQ
The assay can be described thus: NCI-H295R cellular pregnenolone biosynthesis inhibition assay (ELISA method). The class given is cell-based. The following applies: IC50, NCI-H295R cells, 3 days incubation, pregnenolone in cell supernatant by ELISA. On the procedure:
The experiment aims to test the inhibitory effect of the compounds of the present disclosure on cellular pregnenolone biosynthesis, and to assess the inhibitory effect of the compounds on CYP11A1 target based on their IC50 values.
NCI-H295R cells (MINGZHOUBIO, MZ-2138) cultured in NCI-H295R complete medium (MINGZHOUBIO, MCM-0399).
Using culture medium, NCI-H295R cells were seeded into a new 384-well cell culture plate (Greiner, 781091) at a density of 5,000 cells per well, with 45µL of cell suspension per well. The test compounds were prepared by adding 5µL of compound solution at 10× concentration to each well, to a maximum final concentration of 10µM, followed by 3× serial dilution for 10 points, with a final DMSO concentration of 0.1%, centrifuging at 1,000 rpm for 1 minute at room temperature, and then incubating in a 5% CO2 cell incubator at 37°C for 3 days.
Pregnenolone ELISA kit (Abnova, KA1912) was used for detecting the content of pregnenolone in the supernatant of cell culture. Before detection, the reagents were allowed to come back to room temperature for 1 hour. After taking out the 384-well plate, the cellular supernatant was pipetted and subjected to 5× dilution with the Assay Buffer provided in the kit. A working solution of competitive molecule and a washing solution in accordance with the instructions was prepared. 50µL of diluted cellular supernatant were pipetted into the 96-well plate provided in the ELISA kit, added with 100µL of working solution of competitive molecule per well and the plate was incubated at room temperature for 1.5 hours. After discarding the liquid, the plate was washed with 300µL of washing solution per well three times and dried. After adding 150 µL of substrate chromogenic solution per well, the plate was incubated at room temperature for 10-15 minutes. After adding 50 µL of termination solution per well, the plate was incubated at room temperature for 10-15 minutes and read for absorbance at 450nm with Envision HTS Multilabel Reader.
The wells added with 1µM ODM-208 were defined as 100% inhibition (positive control), the wells containing DMSO at a final concentration of 0.1% were defined as 0% inhibition (negative control), and inhibitory ratio = (absorbance of tested sample - average absorbance of negative control)/(average absorbance of positive control - average absorbance of negative control)*100%. The data were subjected to four-parameter fitting using GraphPad Prism to calculate the IC50 values of the compounds.
Background: An ELISA detects its analyte on a solid surface through an enzyme-linked reagent.
Usually IC50 stands for the concentration at which inhibition is half-maximal. `CS(=O)(=O)N1CCC(COc2cc(F)c(CN3Cc4ccccc4C3)cc2C#N)CC1` [compound 30] displayed an IC50 of less than 100 nM.

The assay is the same for the next values; noted with them: NCI-H295R cells, 3 days incubation, pregnenolone in cell supernatant by ELISA; read-out: IC50.
`COc1cc(CN2Cc3ccncc3C2)ccc1CCC1CCN(S(C)(=O)=O)CC1` [compound 63]: the IC50 is less than 100 nM.

As for `CS(=O)(=O)N1CCC(COc2cc(F)c(CN3Cc4ccccc4C3)cc2F)CC1` [compound 32], the IC50 was less than 100 nM.

With `CCOc1cc(CN2Cc3ccccc3C2)ccc1CCC1CCN(S(C)(=O)=O)CC1` [compound 73], the IC50 was 100 to 300 nM.

Regarding `COc1c(CCC2CCN(S(C)(=O)=O)CC2)ccc(CN2Cc3ccccc3C2)c1F` [compound 85], the IC50 was less than 100 nM.

Consider `COc1cc(CN2Cc3ccccc3C2)ccc1CCN1CCN(S(C)(=O)=O)CC1` [compound 48], for which the IC50 lay in the range of 100 to 300 nM.

Consider `CS(=O)(=O)N1CCC2(CCN(c3ccc(CN4Cc5ccccc5C4)cc3F)CC2)C1` [compound 58], for which the IC50 was more than 300 nM.

Turning to `CS(=O)(=O)N1CCC(CCOc2cc(CN3Cc4ccccc4C3)ccn2)CC1` [compound 6], the IC50 is more than 300 nM.

On to `[2H]C(c1c(F)cc(CCC2CCN(S(C)(=O)=O)CC2)c(=O)n1C)N1Cc2ccccc2C1` (stereo not drawn) [compound 108], for which the 50% inhibitory concentration (IC50) was less than 100 nM.

In the case of `COc1c(CCC2CCN(S(C)(=O)=O)CC2)cc(F)c(CN2Cc3ccccc3C2)c1F` [compound 64], the IC50 is less than 100 nM.

As for `COc1cc(CN2Cc3ccccc3C2)ccc1CCC1CCN(C(=O)C(F)(F)F)CC1` [compound 71], the IC50 was 100 to 300 nM.

As for `CS(=O)(=O)N1CCC(COc2ccc(CN3Cc4ccccc4C3)cc2)CC1` [compound 10], the IC50 was less than 100 nM.

As to `COc1cc(CN2Cc3ccccc3C2)ccc1CCC1CCN(C(=O)C(C)(C)C)CC1` [compound 81], the 50% inhibitory concentration (IC50) was less than 100 nM.

On to `COc1cc(CN2Cc3cccc(F)c3C2)c(F)cc1CCC1CCN(S(C)(=O)=O)CC1` [compound 66], for which the IC50 was less than 100 nM.

As for `CS(=O)(=O)N1CCC(CCc2ccc(CN3Cc4ccccc4C3)cc2F)CC1` [compound 40], the IC50 was less than 100 nM.

Turning to `COc1cc(CN2Cc3ccccc3C2)ccc1CCC1CCN(S(=O)(=O)c2ccc(C)cc2)CC1` [compound 75], the IC50 was less than 100 nM.

With `CS(=O)(=O)N1CCC(CCc2ncc(CN3Cc4ccccc4C3)s2)CC1` [compound 86], the IC50 lay in the range of 100 to 300 nM.

For `COc1cc(CN2Cc3ccccc3C2)ncc1OCC1CCN(S(C)(=O)=O)CC1` [compound 2], the IC50 is more than 300 nM.

Consider `C=C(C)c1cc(CN2Cc3ccccc3C2)c(F)cc1OCC1CCN(S(C)(=O)=O)CC1` [compound 28], for which the IC50 was less than 100 nM.

Take `CC(C)(C)OC(=O)N1CCC(COc2cc(F)c(CN3Cc4ccccc4C3)cc2Br)CC1` [compound 46]: the concentration for half-maximal inhibition (IC50) was less than 100 nM.

Consider `CS(=O)(=O)N1CCC(CCc2cc(F)c(CN3Cc4ccccc4C3)cc2C#N)CC1` [compound 59], for which the IC50 is less than 100 nM.

Consider `CNC(=O)N1CCC(CCc2ccc(CN3Cc4ccccc4C3)cc2OC)CC1` [compound 79], for which the IC50 was less than 100 nM.

Take `COc1cc(CN2Cc3ccccc3C2)c(F)cc1CCC1CCN(S(C)(=O)=O)CC1` [compound 41]: the IC50 lay in the range of 100 to 300 nM.

For `CS(=O)(=O)N1CCC(COc2ccc(CN3Cc4ccccc4C3)nc2)CC1` [compound 8], the IC50 is more than 300 nM.

For `CS(=O)(=O)N1CCC(CN2CCOc3cc(CN4Cc5ccccc5C4)ccc32)CC1` [compound 57], the IC50 is more than 300 nM.

For the compound `CC(C)Oc1cc(CN2Cc3ccccc3C2)ccc1CCC1CCN(S(C)(=O)=O)CC1` [compound 76], the IC50 lay in the range of 100 to 300 nM.

Turning to `CS(=O)(=O)N1CCC(COc2ccc(CN3Cc4ccccc4C3)cc2Cl)CC1` [compound 16], the IC50 was less than 100 nM.

`CS(=O)(=O)N1CCC(CCc2sc(CN3Cc4ccccc4C3)cc2Br)CC1` [compound 95]: the IC50 is more than 300 nM.

With `CS(=O)(=O)N1CCC(COc2c(F)cc(CN3Cc4ccccc4C3)cc2Br)CC1` [compound 34], the IC50 was less than 100 nM.

With `Cn1c(CN2Cc3ccccc3C2)c(F)cc(C(F)CC2CCN(S(C)(=O)=O)CC2)c1=O` (stereo not drawn) [compound 124], the IC50 is less than 100 nM.

As to `Cn1c(CN2Cc3ccncc3C2)c(F)cc(CCC2CCN(S(C)(=O)=O)CC2)c1=O` [compound 99], the IC50 is more than 300 nM.

With `CC(C)(C)OC(=O)N1CCC2(CCN(c3ccc(CN4Cc5ccccc5C4)cc3F)CC2)C1` [compound 51], the IC50 was more than 300 nM.

With `Cn1c(CN2Cc3ccccc3C2)c(F)cc(CCC2CCN(S(C)(=O)=O)CC2(C)C)c1=O` (stereo not drawn) [compound 114], the IC50 is less than 100 nM.

For the compound `CS(=O)(=O)N1CCC(COc2ccc(CN3Cc4ccccc4C3)cc2-c2ccco2)CC1` [compound 36], the IC50 was more than 300 nM.

In the case of `COc1nc(CN2Cc3ccccc3C2)ccc1CCC1CCN(S(C)(=O)=O)CC1` [compound 65], the IC50 is 100 to 300 nM.

For the compound `C=C(C)c1cc(CN2Cc3ccccc3C2)ccc1OCC1CCN(S(C)(=O)=O)CC1` [compound 27], the IC50 lay within 100 to 300 nM.

With `CS(=O)(=O)N1CCC(CCc2ccc(CN3Cc4ccccc4C3)o2)CC1` [compound 83], the IC50 is more than 300 nM.

As for `Cn1c(CN2Cc3ccccc3C2)c(F)cc(C=CC2CCN(C(=O)OC(C)(C)C)CC2)c1=O` [compound 103], the IC50 lay in the range of 100 to 300 nM.

In the case of `COc1cc(CN2Cc3ccccc3C2)ccc1CCC1CCN(S(=O)(=O)c2cccs2)CC1` [compound 78], the IC50 is less than 100 nM.

Take `CC1CC(C#Cc2cc(F)c(CN3Cc4ccccc4C3)n(C)c2=O)CCN1C(=O)OC(C)(C)C` (stereo not drawn) [compound 115]: the IC50 is less than 100 nM.

Take `CS(=O)(=O)N1CCC(COc2ccc(CN3Cc4ccccc4C3)cc2-c2ncco2)CC1` [compound 37]: the IC50 lay in the range of 100 to 300 nM.

Consider `COC(=O)N1CCC(CCc2ccc(CN3Cc4ccccc4C3)cc2OC)CC1` [compound 80], for which the IC50 is less than 100 nM.

Regarding `CC1CC(CCc2cc(F)c(CN3Cc4ccccc4C3)n(C)c2=O)CCN1C(=O)OC(C)(C)C` (stereo not drawn) [compound 117], the IC50 is less than 100 nM.

As to `CS(=O)(=O)N1CCC(C=Cc2ccc(CN3Cc4ccccc4C3)cc2C#N)CC1` [compound 60], the IC50 was less than 100 nM.

Regarding `Cn1c(CN2Cc3ccccc3C2)c(F)cc(-c2ccc3c(c2)CCN(S(C)(=O)=O)C3)c1=O` [compound 120], the IC50 was less than 100 nM.

On to `CC(=O)N1CCC(CCSc2ccc(CN3Cc4ccccc4C3)cc2F)CC1` [compound 49], for which the IC50 is less than 100 nM.

Turning to `CC(=O)N1CCN(c2cccc(Oc3ccc(CN4Cc5ccccc5C4)cc3F)c2)CC1` [compound 47], the IC50 was more than 300 nM.

Take `CS(=O)(=O)N1CCC(CCc2cc(F)c(CN3Cc4ccccc4C3)[nH]c2=O)CC1` [compound 94]: the IC50 is 100 to 300 nM.

In the case of `CCC(C)Oc1cc(CN2Cc3ccccc3C2)c(F)cc1OCC1CCN(S(C)(=O)=O)CC1` (stereo not drawn) [compound 12], the IC50 was less than 100 nM.

With `CC(C)c1cc(CN2Cc3ccccc3C2)c(F)cc1OCC1CCN(S(C)(=O)=O)CC1` [compound 31], the IC50 was more than 300 nM.

In the case of `CC1CC(CCc2cc(F)c(CN3Cc4ccccc4C3)n(C)c2=O)CCN1S(C)(=O)=O` (stereo not drawn) [compound 109], the IC50 was less than 100 nM.

Consider `CS(=O)(=O)N1CCC(CSc2ccc(CN3Cc4ccccc4C3)cc2F)CC1` [compound 43], for which the concentration for half-maximal inhibition (IC50) was 100 to 300 nM.

Take `CC(C)Oc1cc(CN2Cc3ccccc3C2)ccc1OCC1CCN(S(C)(=O)=O)CC1` [compound 21]: the IC50 is less than 100 nM.

Turning to `COc1cc(CN2Cc3ccccc3C2)ccc1CCC1CCN(S(=O)(=O)C(F)(F)F)CC1` [compound 77], the IC50 was 100 to 300 nM.

The record behind these values is EP4775570A1, “CYP11A1 INHIBITOR, PREPARATION METHOD THEREFOR AND USE THEREOF” (Shenzhen Zhongge Biological Technology Co., Ltd., priority 2023, dated 2025).
